# Source: patent publication US9487492B2, “Dibenzothiazepine derivatives and their use in the treatment of CNS disorders” (NUMEDICUS LIMITED, priority 2011, dated 2016)
# How the values were obtained:
# [1] = Metabolic stability in cryopreserved beagle dog hepatocytes; assay type: in vitro ADME; details: beagle, dog, cryopreserved hepatocytes, test compound 1 μM, 3 million cells per ml, 90 min incubation
# Experimental: (§1) The metabolic stability of the compounds of the invention was evaluated in-vitro using cryopreserved beagle dog hepatocytes, as described in more detail hereinafter in the Experimental and Preparations section.
# (§2) The test compound (1 μM) was incubated with cryopreserved beagle dog hepatocytes at 3 million cells per ml, in 300 μL of Leibovitz's medium for a total period of 90 min. During this period, 25 μL aliquots were taken at 1, 10, 30, 50, 70 & 90 minutes and quenched in acetonitrile. Quenched samples were centrifuged to pellet the precipitated protein, and supernatant removed for LC-MS-MS (high performance liquid chromatography coupled to a tandem mass spectrometer) analysis to quantify the amount of the parent test compound remaining. The first order elimination rate constant (k) was determined from a plot of natural log of parent test compound remaining versus time, and used to calculate a metabolic stability half-life (T1/2), where T1/2=Ln2/k where k=elimination rate constant.
# [2] = system: cryopreserved beagle dog hepatocytes; test: as above; assay type: in vitro ADME; details: Example 2 versus tianeptine
# Experimental: as §1, §2
# [3] = system: hippocampal CA1 pyramidal neurones; test: Whole cell recording of EPSC amplitude in hippocampal slices; assay type: cell-based, male Sprague-Dawley rats
# Experimental: The stimulatory activity of the compounds of the invention on the central nervous system was evaluated in-vitro by recording the excitatory postsynaptic current (EPSC) amplitude in stimulated hippocampal CA1 pyramidal neurones from slices of male Sprague-Dawley rats, as described in more detail hereinafter in the Experimental and Preparations section.
# Male Sprague-Dawley rats, 15 to 20 days old at the time of surgery, were used in this study. On the day of the experiment, animals were terminally anaesthetized using isofluorane, cervically dislocated, and decapitated. The brain was removed and 400 μm thick parasagittal brain slices prepared using a Leica VT1000S. Slices were maintained in an artificial cerebrospinal fluid (ACSF) of the following composition (in mM, aqueous solution): 127 NaCl; 1.9 KCl; 1.2 KH2PO4; 2.4 CaCl2; 1.3 MgCl2; 26 NaHCO3; and, 10 D-glucose, bubbled with a mixture of 95% O2/5% CO2, at room temperature for 1 hour after slicing before commencing electrophysiological recordings. […]
# [4] = PPB (compound bound to proteins); details: plasma
smiles,measurement,setting,value
"CN1c2ccccc2C(NCCCCOCC(=O)O)c2ccc(Cl)cc2S1(=O)=O (stereo not drawn) [Example 2, 2-(4-((3-chloro-6-methyl-5,5-dioxido-6,11-dihydrodibenzo[c,f][1,2]thiazepin-11-yl)amino)butoxy)acetic acid]",half-life at 1 μM,[1]; T1/2=Ln2/k,34.4 h
same,hepatocyte CLint at 1 μM,[1]; read-out: Clint (intrinsic clearance),0.3 µL/min/1e6 cells
same,metabolic stability half life compared with tianeptine,[2],more than 10 times
same,increase of control EPSC amplitude,"[3]; 10 μM bath applied, percentage of the control, mean±S.E.M (n=6)",224.67±34.27%
same,effect on excitatory transmission in CA1 region of hippocampus (FIG. 1),"[3]; representative electrophysiological recording, 10 μM",facilitates excitatory transmission
same,fraction unbound,[4],0.18
